What all share (assay): Tyrosine kinase inhibition assay
Type in all cases: biochemical

In one experiment the target is JAK2 (Homo sapiens, UniProt O60674). The conditions noted are these: single concentration 1.0 μM, read-out: percent inhibition. In outline: (§1)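 Single-point screen, 1.0 μM compound, 1% DMSO final; ATP at apparent Km. Buffer: 50 mM HEPES pH 7.5, 0.01% BRIJ-35, 10 mM MgCl2, 1 mM EGTA. Z′-LYTE readout, % inhibition; hit = >80%.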
Another experiment addresses AKT2 (PKB beta) (Homo sapiens, UniProt P31751). The conditions noted are these: single concentration 1.0 μM, read-out: percent inhibition. In outline:
as §1

A further experiment has as its target T1, MATK (HYL) (Homo sapiens, UniProt P42679).
T1 sequence (P42679 1-507): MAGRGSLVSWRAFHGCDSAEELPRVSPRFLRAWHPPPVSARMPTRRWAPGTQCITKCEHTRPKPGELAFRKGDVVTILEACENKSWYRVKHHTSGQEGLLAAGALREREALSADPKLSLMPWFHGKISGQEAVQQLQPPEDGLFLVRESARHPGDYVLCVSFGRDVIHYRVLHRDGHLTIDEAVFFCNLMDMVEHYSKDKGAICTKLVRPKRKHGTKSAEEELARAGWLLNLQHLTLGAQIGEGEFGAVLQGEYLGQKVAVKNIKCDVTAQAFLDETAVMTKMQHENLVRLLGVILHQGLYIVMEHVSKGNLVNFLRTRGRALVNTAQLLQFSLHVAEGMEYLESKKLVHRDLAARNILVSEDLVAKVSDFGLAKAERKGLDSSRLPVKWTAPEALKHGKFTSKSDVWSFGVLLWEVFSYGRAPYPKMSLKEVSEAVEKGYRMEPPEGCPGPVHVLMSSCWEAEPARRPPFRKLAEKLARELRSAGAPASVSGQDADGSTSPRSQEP
Conditions: single concentration 1.0 μM, read-out: percent inhibition. In outline:
as §1

Another experiment addresses FGFR4 (Homo sapiens, UniProt P22455). Conditions: single concentration 1.0 μM, read-out: percent inhibition. The method in brief: as §1
The target in a further experiment is T2, ZAP70 (Homo sapiens, UniProt P43403).
T2 sequence (P43403 1-619): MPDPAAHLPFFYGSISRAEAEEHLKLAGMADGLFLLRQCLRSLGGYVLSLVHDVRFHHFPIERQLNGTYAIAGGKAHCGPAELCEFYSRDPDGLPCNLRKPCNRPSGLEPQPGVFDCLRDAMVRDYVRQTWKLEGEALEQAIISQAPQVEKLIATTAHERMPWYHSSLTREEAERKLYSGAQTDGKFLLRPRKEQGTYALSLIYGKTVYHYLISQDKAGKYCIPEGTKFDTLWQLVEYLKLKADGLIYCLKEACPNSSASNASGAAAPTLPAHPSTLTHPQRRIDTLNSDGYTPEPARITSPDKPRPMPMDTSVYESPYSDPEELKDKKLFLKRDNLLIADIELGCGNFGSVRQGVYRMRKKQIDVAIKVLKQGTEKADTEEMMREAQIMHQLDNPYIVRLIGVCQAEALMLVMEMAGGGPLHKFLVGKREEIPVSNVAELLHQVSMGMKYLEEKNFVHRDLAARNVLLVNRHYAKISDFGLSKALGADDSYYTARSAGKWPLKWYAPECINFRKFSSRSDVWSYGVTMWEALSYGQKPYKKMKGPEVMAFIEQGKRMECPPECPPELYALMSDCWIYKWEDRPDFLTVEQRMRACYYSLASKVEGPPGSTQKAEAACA
The conditions noted are these: single concentration 1.0 μM, read-out: percent inhibition. The method in brief:
as §1

Experiment [1] concerns the target PIK3CA/PIK3R1 (p110 alpha/p85 alpha) (Homo sapiens, UniProt P42336). Conditions: read-out: percent inhibition. The method in brief: as §1
A further experiment addresses T3, EPHA3 (Homo sapiens, UniProt P29320).
T3 sequence (P29320 21-983): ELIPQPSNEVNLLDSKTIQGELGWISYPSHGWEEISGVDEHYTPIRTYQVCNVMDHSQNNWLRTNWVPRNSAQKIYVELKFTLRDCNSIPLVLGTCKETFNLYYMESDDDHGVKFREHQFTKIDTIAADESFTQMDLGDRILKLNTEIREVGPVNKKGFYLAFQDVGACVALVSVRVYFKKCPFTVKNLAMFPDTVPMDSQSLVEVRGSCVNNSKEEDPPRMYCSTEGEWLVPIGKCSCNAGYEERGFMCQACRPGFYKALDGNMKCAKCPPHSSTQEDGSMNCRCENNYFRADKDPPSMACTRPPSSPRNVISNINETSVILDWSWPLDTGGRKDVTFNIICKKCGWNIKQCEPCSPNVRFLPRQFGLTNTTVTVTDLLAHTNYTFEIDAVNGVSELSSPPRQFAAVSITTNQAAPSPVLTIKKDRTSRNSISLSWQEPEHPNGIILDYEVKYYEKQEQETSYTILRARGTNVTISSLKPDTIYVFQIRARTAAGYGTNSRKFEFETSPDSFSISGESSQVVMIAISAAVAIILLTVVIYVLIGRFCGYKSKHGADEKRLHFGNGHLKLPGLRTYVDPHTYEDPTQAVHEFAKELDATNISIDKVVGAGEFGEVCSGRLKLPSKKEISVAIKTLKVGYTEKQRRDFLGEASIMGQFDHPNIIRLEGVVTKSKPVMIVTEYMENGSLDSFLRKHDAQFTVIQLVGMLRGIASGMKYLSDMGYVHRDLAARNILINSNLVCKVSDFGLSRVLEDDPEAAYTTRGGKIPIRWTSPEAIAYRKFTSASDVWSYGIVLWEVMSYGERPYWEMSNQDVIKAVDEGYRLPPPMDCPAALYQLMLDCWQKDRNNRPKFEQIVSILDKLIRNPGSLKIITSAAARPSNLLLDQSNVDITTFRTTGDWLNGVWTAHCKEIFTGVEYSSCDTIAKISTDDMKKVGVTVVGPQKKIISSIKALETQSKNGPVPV
Conditions: single concentration 1.0 μM, read-out: percent inhibition. In outline: as §1

The next experiment has as its target FYN A (Homo sapiens, UniProt P06241). The conditions noted are these: single concentration 1.0 μM, read-out: percent inhibition. In outline:
as §1

A further experiment has as its target AKT1 (PKB alpha) (Homo sapiens, UniProt P31749). The conditions noted are these: single concentration 1.0 μM, read-out: percent inhibition. The method in brief: as §1
Setting [2] is: PIK3CA/PIK3R1 (p110 alpha/p85 alpha), single concentration 1.0 μM.

Like-named read-outs stand apart in the source and are kept apart here.

Results on 5 compounds are retold here after patent US20250120967A1, “TYROSINE KINASES INHIBITORS AND USES THEREOF” (GREAT NOVEL THERAPEUTICS BIOTECH & MEDICALS CORPORATION, priority 2023, published 2025).

Sequence of PIK3CA/PIK3R1 (p110 alpha/p85 alpha) (P42336 whole entry): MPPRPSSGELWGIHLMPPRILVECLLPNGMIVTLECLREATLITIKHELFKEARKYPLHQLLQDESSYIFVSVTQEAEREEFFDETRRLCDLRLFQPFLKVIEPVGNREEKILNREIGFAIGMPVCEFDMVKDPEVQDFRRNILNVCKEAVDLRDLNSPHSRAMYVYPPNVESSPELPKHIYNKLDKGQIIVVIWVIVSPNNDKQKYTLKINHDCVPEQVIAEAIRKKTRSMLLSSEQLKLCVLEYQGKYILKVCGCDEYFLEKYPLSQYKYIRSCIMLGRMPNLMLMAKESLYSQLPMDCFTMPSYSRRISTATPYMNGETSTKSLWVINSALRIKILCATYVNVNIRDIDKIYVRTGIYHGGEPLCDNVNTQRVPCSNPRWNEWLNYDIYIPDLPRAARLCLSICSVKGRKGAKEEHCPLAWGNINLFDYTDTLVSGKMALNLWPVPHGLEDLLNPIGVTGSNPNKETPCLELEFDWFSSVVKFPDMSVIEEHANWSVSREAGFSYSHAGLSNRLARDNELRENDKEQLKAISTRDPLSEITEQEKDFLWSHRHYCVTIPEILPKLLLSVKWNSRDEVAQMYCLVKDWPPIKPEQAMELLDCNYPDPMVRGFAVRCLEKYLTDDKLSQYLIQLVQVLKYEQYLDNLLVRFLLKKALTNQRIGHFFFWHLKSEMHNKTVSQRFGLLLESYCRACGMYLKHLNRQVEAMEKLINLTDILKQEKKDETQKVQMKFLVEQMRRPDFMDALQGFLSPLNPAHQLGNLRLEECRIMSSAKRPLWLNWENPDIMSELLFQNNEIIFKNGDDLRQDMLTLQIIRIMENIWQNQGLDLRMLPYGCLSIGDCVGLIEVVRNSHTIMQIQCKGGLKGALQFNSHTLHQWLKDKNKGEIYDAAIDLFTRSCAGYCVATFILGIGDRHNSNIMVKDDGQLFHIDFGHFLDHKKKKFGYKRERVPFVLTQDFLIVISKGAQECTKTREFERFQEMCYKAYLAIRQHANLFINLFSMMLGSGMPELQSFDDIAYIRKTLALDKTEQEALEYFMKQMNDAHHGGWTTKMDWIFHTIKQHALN
Sequence of PIK3CA/PIK3R1 (p110 alpha/p85 alpha) (P27986 whole entry partner): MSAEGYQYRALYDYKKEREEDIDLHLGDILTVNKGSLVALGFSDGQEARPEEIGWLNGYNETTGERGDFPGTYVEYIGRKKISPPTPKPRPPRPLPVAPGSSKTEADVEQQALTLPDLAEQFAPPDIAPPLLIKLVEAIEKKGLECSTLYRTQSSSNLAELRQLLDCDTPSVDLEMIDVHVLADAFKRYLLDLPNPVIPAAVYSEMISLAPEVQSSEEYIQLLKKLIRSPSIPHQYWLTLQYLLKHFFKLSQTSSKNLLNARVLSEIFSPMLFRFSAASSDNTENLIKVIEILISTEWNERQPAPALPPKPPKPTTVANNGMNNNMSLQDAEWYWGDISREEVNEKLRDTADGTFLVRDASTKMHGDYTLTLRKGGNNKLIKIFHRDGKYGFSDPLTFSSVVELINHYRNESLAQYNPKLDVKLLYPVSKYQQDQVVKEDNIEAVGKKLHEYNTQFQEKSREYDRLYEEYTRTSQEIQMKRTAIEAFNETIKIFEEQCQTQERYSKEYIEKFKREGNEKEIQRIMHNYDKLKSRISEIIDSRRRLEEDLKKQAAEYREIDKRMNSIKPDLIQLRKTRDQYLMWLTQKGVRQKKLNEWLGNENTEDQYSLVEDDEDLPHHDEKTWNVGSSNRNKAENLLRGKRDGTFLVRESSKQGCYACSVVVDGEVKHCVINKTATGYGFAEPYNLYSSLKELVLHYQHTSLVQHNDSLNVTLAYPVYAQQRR
Sequence of AKT2 (PKB beta) (P31751 whole entry): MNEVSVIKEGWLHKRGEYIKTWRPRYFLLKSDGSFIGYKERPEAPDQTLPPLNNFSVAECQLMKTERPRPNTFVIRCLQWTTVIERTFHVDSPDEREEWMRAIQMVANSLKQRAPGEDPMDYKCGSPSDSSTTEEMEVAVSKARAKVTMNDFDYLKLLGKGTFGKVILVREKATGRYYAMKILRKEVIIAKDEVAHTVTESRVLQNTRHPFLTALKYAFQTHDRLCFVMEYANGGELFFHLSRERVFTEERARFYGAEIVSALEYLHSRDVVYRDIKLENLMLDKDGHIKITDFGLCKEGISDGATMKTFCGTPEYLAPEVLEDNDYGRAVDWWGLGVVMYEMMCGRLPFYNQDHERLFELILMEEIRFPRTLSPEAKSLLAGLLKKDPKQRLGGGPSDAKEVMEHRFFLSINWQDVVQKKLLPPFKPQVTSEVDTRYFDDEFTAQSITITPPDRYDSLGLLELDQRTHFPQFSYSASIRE
Sequence of FYN A (P06241 whole entry): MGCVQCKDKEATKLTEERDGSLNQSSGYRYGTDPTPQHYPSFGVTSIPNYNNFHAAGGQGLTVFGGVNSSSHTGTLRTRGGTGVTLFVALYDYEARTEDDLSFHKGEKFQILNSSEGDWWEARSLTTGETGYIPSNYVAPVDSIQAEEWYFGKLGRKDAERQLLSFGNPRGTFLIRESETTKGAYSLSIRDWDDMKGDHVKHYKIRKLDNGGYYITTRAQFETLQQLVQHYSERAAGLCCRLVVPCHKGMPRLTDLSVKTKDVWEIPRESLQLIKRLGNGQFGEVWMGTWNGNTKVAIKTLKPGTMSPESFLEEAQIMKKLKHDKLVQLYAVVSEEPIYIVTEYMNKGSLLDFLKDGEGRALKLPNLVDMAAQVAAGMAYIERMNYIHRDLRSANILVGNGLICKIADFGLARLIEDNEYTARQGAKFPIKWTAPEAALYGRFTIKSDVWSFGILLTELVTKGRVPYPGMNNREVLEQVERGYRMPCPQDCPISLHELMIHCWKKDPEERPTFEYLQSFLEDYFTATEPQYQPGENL
Sequence of JAK2 (O60674 whole entry): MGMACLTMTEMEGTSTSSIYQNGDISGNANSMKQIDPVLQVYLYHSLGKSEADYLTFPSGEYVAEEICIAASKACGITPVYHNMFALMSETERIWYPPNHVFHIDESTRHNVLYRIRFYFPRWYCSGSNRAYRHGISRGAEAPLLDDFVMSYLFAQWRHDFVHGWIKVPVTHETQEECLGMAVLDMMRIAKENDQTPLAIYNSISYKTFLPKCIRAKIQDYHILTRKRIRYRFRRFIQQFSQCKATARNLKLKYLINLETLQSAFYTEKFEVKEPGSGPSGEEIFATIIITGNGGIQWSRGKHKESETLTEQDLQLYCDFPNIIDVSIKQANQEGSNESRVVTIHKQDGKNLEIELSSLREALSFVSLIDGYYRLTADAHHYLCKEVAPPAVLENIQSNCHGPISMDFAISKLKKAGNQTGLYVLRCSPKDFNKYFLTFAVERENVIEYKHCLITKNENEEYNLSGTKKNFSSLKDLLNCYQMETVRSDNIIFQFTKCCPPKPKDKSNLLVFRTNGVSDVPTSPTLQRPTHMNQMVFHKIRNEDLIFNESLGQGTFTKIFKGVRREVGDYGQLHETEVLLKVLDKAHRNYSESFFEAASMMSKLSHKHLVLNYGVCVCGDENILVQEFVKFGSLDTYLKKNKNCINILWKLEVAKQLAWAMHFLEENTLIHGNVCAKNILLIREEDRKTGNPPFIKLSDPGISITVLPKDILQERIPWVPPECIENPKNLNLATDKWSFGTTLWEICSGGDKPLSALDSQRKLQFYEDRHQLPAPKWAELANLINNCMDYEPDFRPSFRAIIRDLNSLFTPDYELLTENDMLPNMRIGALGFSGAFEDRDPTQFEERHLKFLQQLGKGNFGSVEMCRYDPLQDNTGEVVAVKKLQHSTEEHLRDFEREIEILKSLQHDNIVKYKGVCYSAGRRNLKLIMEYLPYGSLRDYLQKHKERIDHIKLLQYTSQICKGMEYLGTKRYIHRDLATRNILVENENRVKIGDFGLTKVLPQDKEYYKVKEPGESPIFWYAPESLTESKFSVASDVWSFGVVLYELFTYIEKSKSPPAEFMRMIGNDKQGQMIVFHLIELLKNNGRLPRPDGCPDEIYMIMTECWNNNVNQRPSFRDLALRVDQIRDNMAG
Sequence of FGFR4 (P22455 22-802): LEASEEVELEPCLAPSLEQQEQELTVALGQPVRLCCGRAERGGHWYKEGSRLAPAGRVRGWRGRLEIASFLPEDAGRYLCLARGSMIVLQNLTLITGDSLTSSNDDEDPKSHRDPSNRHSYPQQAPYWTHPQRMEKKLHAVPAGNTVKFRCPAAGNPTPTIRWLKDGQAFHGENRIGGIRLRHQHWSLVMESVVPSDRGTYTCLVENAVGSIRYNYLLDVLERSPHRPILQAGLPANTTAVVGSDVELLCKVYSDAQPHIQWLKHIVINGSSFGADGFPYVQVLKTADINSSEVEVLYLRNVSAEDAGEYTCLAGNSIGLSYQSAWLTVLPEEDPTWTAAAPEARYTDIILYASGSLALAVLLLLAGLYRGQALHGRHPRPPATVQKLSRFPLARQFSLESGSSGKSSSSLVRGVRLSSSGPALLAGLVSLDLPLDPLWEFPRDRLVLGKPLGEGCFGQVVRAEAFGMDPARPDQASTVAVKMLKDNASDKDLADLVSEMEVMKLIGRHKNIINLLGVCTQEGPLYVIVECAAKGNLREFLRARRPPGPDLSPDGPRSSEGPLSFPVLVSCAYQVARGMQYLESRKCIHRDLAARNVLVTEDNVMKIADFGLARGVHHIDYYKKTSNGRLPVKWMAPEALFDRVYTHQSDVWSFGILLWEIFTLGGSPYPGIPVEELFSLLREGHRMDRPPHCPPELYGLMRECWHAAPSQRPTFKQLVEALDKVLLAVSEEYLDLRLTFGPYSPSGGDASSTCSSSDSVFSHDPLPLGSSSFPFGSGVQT

On to `COc1cc2nccc(Oc3ccc(NC(=O)C4(C(=O)Nc5ccc(F)cc5)CC4)cc3)c2cc1OC` [Cabozantinib, reference compound], for which the inhibition at 1 µM on JAK2 was 24%; at AKT2 (PKB beta), 17%; on MATK (HYL) it was 10%; on FGFR4, -2%; at ZAP70, 13%; in experiment [1], 0%. Moreover, the results for the inhibition at 1 µM at EPHA3, on FYN A and at AKT1 (PKB alpha) were 100%, 74% and 3%, respectively.
Turning to `COc1cc2nccc(Oc3ccc(NC(=O)C4(NC(=O)c5ccc(F)cc5)CC4)cc3F)c2cc1OC` [Cbo-02, N-(1-((4-((6,7-diMethoxyquinolin-4-yl)oxy)-3-fluorophenyl)carbamoyl)cyclopropyl)-4-fluorobenzamide], the inhibition at 1 µM at JAK2 is 6%; at AKT2 (PKB beta), 10%; on MATK (HYL), 7%; at FGFR4, 0%; on ZAP70 it was 14%; in experiment [1] (setting [2]), -6%. The results for the inhibition at 1 µM at EPHA3, at FYN A and on AKT1 (PKB alpha) were -3%, 30% and 2%, respectively.
With `COc1cc2nccc(Oc3ccc(NC(=O)C4(NC(=O)c5ccc(F)cc5)CC4)cc3F)c2cc1Oc1ccc(N)cc1F` [Cbo-10], the inhibition at 1 µM was -1% on JAK2; 5% at AKT2 (PKB beta); 5% at MATK (HYL); 1% at FGFR4; 6% at ZAP70; 10% in [1] (setting [2]). Also, the inhibition at 1 µM at EPHA3 worked out at 14%; on FYN A it was 47%; on AKT1 (PKB alpha), 0%.
For the compound `COc1cc2nccc(Oc3ccc(NC(=O)C4(NC(=O)c5ccc(F)cc5)CC4)cc3F)c2cc1Oc1c(F)cc(N)cc1F` [Cbo-14], the inhibition at 1 µM on JAK2 is 1%; at AKT2 (PKB beta) it was 10%; on MATK (HYL), 8%; on FGFR4, -1%; on ZAP70, 9%; in [1] (setting [2]), 3%. Further, the values for the inhibition at 1 µM at EPHA3, on FYN A and at AKT1 (PKB alpha) were 24%, 57% and 2%, respectively.
For the compound `COc1cc2nccc(Oc3ccc(NC(=O)C4(C(=O)Nc5ccc(F)cc5)CC4)cc3F)c2cc1Oc1ccc(N)cc1F` [Cbo-23], the inhibition at 1 µM at JAK2 came out at 58%; at AKT2 (PKB beta), 0%; on MATK (HYL), 8%; on FGFR4 it was 13%; at ZAP70 it was 5%; in experiment [1] (setting [2]), 4%. Also, the inhibition at 1 µM at EPHA3 worked out at 97%; at FYN A, 70%; on AKT1 (PKB alpha), 4%.

Usually inhibition stands for the relative decrease from the control value, in per cent.
